From publication PMC3658134 (Biochemistry, 2011)
Read-outs that look alike come from different tables or passages of the source.

Tests used:
Assay type in all cases: biochemical
[1] = target: T1, wild-type TGR (SmTGR) (Schistosoma mansoni, UniProt Q962Y6); test: Substrate specificity, NADPH consumption, wild-type TGR
T1 sequence (Q962Y6 1-598): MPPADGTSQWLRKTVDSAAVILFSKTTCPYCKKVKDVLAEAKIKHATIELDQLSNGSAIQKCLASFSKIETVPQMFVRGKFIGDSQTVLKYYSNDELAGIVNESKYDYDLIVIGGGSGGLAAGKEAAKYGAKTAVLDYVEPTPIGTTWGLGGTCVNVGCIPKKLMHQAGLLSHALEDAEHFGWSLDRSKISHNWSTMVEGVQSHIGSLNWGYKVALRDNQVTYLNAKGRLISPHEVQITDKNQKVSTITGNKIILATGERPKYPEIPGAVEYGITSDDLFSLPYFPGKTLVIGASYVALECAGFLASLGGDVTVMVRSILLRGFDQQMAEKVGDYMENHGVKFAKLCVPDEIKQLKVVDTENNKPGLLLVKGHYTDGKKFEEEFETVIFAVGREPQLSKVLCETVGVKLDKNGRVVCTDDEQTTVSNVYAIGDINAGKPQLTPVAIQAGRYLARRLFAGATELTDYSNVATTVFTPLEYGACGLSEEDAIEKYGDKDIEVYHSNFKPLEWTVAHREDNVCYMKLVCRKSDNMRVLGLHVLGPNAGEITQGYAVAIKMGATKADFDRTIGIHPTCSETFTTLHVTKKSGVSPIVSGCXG

[2] = target: T2, Sec597Cys SmTGR (Schistosoma mansoni, UniProt Q962Y6); test: Substrate specificity, NADPH consumption, Sec597Cys; conditions: 100 μM NADPH
[3] = target: T3, WT SmTGR (Schistosoma mansoni, UniProt Q962Y6); test: Inhibition of DTNB activity of WT SmTGR
[4] = target: T2, Sec597Cys SmTGR; test: Inhibition of DTNB activity of Sec597Cys
[5] = target: T3, WT SmTGR; test: Inhibition of GR activity of WT SmTGR
[6] = target: T2, Sec597Cys SmTGR; test: Inhibition of GR activity of Sec597Cys
[7] = target: T3, WT SmTGR; test: Inhibition of TrxR activity of WT SmTGR
[8] = target: T2, Sec597Cys SmTGR; test: Inhibition of TrxR activity of Sec597Cys
[9] = WT enzyme 20 or 100 nM, 100 μM NADPH, ND = undetectable activity
[10] = Sec597Cys 100 or 150 nM, ND = undetectable activity

CC(C)(C)OO [t-Butyl-OOH, tert-butyl hydroperoxide] was tested, and the Km [1, 9] was 75 ± 10 mM and the Km [2, 10] was 53 ± 5 mM.
Work on O=C1NC(=O)C(=O)C(=O)N1 [Alloxan, alloxan] yielded a Km [2, 10] of 0.88 ± 0.07 mM.
O=[Se](O)O [NaSeO3, sodium selenite] showed a Km ([1]; WT enzyme 100 nM, 100 μM NADPH) of 0.0087 ± 0.0025 mM and a Km ([2]; Sec597Cys 100 nM) of 0.0173 ± 0.0044 mM.
For O=C(O)CCCC[C@@H]1CCSS1 (racemic) [Lipoic acid, lipoic acid], the Km [1, 9] was 2.9 ± 0.7 mM and the Km [2, 10] was 9.3 ± 2.9 mM.
With N#Cc1c(-c2ccccc2)no[n+]1[O-] [Fx, 4-phenyl-1,2,5-oxadiazole-3-carbonitrile-2-oxide] the IC50 [3] was 3 µM, the IC50 [4] was 6 µM and the IC50 [5] was 3.2 µM. The IC50 [6] was 2.5 µM, the IC50 [7] was 5.4 µM and the IC50 [8] was 2.1 µM.
OO [H2O2, hydrogen peroxide] gave a Km [1] of 17.3 ± 7.6 mM, a Vmax ([1]; pH 7.4) of 4.6 ± 0.7 s⁻¹ and a Km [2, 10] of 52.4 ± 9.8 mM.
